In PubChem BioAssay (NCI):
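Briefly, cells in 96-well plates were exposed to five compound concentrations for 48 h, and endpoints were estimated by linear interpolation. Definition used: TGI = concentration required for complete inhibition of growth.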

Columns and labels:
Experiment in all cases: growth of human tumour cells (NCI), 48 h
A549 NSCLC = system: A549 NSCLC
HCT-15 colon = system: HCT-15 colon
MALME-3M melanoma = system: MALME-3M melanoma
SR leukemia = system: SR leukemia
RPMI-8226 leukemia = system: RPMI-8226 leukemia
OVCAR-3 ovarian = system: OVCAR-3 ovarian
SF-539 CNS = system: SF-539 CNS
786-0 renal = system: 786-0 renal
T-47D breast = system: T-47D breast
PC-3 prostate = system: PC-3 prostate
MCF7 breast = system: MCF7 breast
OVCAR-4 ovarian = system: OVCAR-4 ovarian
U251 CNS = system: U251 CNS
DU-145 prostate = system: DU-145 prostate
LOX IMVI melanoma = system: LOX IMVI melanoma
NCI-H23 lung = system: NCI-H23 lung
HCC-2998 colon = system: HCC-2998 colon
K-562 leukemia = system: K-562 leukemia
SK-MEL-28 melanoma = system: SK-MEL-28 melanoma
MDA-MB-435 = system: MDA-MB-435
NCI/ADR-RES ovarian = system: NCI/ADR-RES ovarian
ACHN renal = system: ACHN renal
IGROV1 ovarian = system: IGROV1 ovarian
HOP-62 NSCLC = system: HOP-62 NSCLC
CAKI-1 renal = system: CAKI-1 renal
MDA-MB-231 breast = system: MDA-MB-231 breast
COLO 205 colon = system: COLO 205 colon
SW-620 colon = system: SW-620 colon
M14 melanoma = system: M14 melanoma
NCI-H460 lung = system: NCI-H460 lung
CCRF-CEM leukemia = system: CCRF-CEM leukemia
OVCAR-8 ovarian = system: OVCAR-8 ovarian
SF-295 CNS = system: SF-295 CNS
RXF 393 renal = system: RXF 393 renal
HT29 colon = system: HT29 colon
KM12 colon = system: KM12 colon
TK-10 renal = system: TK-10 renal
UACC-62 melanoma = system: UACC-62 melanoma
HL-60(TB) leukemia = system: HL-60(TB) leukemia
SNB-19 CNS = system: SNB-19 CNS
MOLT-4 leukemia = system: MOLT-4 leukemia
SK-MEL-5 melanoma = system: SK-MEL-5 melanoma
SN12C renal = system: SN12C renal
OVCAR-5 ovarian = system: OVCAR-5 ovarian
MDA-N = system: MDA-N
SF-268 CNS = system: SF-268 CNS
HCT-116 colon = system: HCT-116 colon
UACC-257 melanoma = system: UACC-257 melanoma
SK-OV-3 ovarian = system: SK-OV-3 ovarian
EKVX NSCLC = system: EKVX NSCLC
SNB-75 CNS = system: SNB-75 CNS
SK-MEL-2 melanoma = system: SK-MEL-2 melanoma
HOP-92 NSCLC = system: HOP-92 NSCLC

Measured: TGI

c1ccc(-n2nc3ccc4nonc4c3n2)cc1
> 100 µM: all assays above
